Measured values published in patent US5258386A (priority 1991, dated 1993).

Assays:
[1] = test system: maximal electroshock seizures (MES); assay: Maximal electroshock seizure (MES) assay in rats, s.c. injection, tonic hindlimb extension (THE); format: in vivo, Male Sprague-Dawley rats; conditions: for % Responding (THE): s.c.; for ED50: sc, read-out: Anticonvulsant ED50
Protocol: The anticonvulsant activity of the present compounds was assessed by the method of inducing maximal electroshock seizures (MES) in rats using the standard testing protocol conditions hereinafter described:
Animals. Male Sprague-Dawley rats weighing 200-250 g obtained from Zivic Miller Laboratories, Alison Park, Pa., were used for all experiments. Upon delivery the animals were kept in individual pens housed in a temperature controlled laboratory. A standard 12-hour light-dark cycle was maintained. The animals were given food and water ad libitum.
Maximal electroshock seizure (MES) assay. Supramaximal (tonic hindlimb extension) seizures were induced in test rats by means of an electric shock apparatus. A current of 60 Hz and 50 mA was delivered transauricularly through miniature alligator clips attached to the pinna of each ear for 2.0 seconds. […] In general, MES causes a generalized convulsion characterized by an initial tonic forelimb extension (TFE) progressing immediately to tonic hindlimb extension (THE) followed by clonic jerking. The presence or absence of THE was recorded for each MES convulsion.
Experimental protocol. Two groups of animals with n=10 for each group were tested under the conditions described above. Compounds were administered to each test animal by a single subcutaneous injection. There were no signs of overt sedation, ataxia or motor impairment at any time during the MES assay after drug injection.

[2] = in vivo; cited from earlier work
[3] = in vivo; cited from earlier work; remark: listed apart in the source
[4] = Proconvulsant activity of dextromethorphan; conditions: doses above about 60 mg/kg, in mammals
[5] = U.S. Pat. Nos. 4,898,860 and 4,906,638; cited from earlier work
[6] = elevated doses; cited from earlier work
[7] = in vivo, demethylation; dextrorphan is the major metabolite in man; cited from earlier work
[8] = U.S. Pat. No. 4,552,962; cited from earlier work

With `CN1CC[C@]23CCCC[C@H]2[C@H]1Cc1ccc(N)cc13.Cl.Cl` [Compound 5, (+)-3-Amino-17-methylmorphinan di-HCl] the “% Responding (THE)” value ([1]; 12.5 mg/kg, rat MES) was 100%, the “% Responding (THE)” value ([1]; 25 mg/kg, rat MES) was 40% and the ED50 ([1]; rat MES, single s.c. injection) was 25 mg/kg.
In the case of `CN1CC[C@]23CCCC[C@H]2[C@H]1Cc1ccc(O)cc13` [Compound 2, (+)-3-hydroxy-N-methylmorphinan], the “Anticonvulsant ED50” value ([1]; rat MES, single s.c. injection) is given as 5 mg/kg, the anticonvulsant activity [2] is given as “some anticonvulsant activity” and the behavioral side effects [3] is given as “harmful behavioral side effects”.
In the case of `CN(C)c1ccc2c(c1)C13CCCCC1C(C2)N(C)CC3` (single isomer, unassigned; (+)) [Compound 7, (+)-3,3-Dimethylamino-17-methylmorphinan sesquitartrate], the “% Responding (THE)” value ([1]; 25 mg/kg, rat MES) is reported as 65% and the ED50 ([1]; rat MES, single s.c. injection) is reported as greater than 25 mg/kg.
For `COc1ccc2c(c1)[C@@]13CCCC[C@H]1[C@@H](C2)N(C)CC3` [Compound 1, (+)-3-methoxy-N-methylmorphinan], the “% Responding (THE)” value ([1]; 15 mg/kg, rat MES) was 70%, the “% Responding (THE)” value ([1]; 30 mg/kg, rat MES) was 70% and the “% Responding (THE)” value ([1]; 60 mg/kg, rat MES) was 30%. For the same compound, the inhibits seizures ([1]; about 60 mg/kg) was “about 70%”, the ED50 ([1]; rat MES, single s.c. injection) was 38 mg/kg and the anticonvulsant activity [2] was “not very potent as an anticonvulsant agent”. The proconvulsant activity [4] was “exhibits proconvulsant activity”, the “potentiating effect on antiepileptic or antiseizure compounds” value [5] was “potentiating effect” and the proconvulsant [6] was “becomes proconvulsant”. For the same compound, the metabolism to dextrorphan [7] was “metabolizes rapidly by demethylation in vivo” and the antitussive activity [8] was “potent antitussive agent”.
